# Article PMC4914611 (Nature nanotechnology, 2013)
# Target: CM11CD746~1R~TET (Chara corallina, UniProt Q9SSU1)
# Settings: actin filaments; 25 mM imidazole, 25 mM KCl, 1 mM EGTA, 2 mM free Mg2+
# Sequence of CM11CD746~1R~TET (Q9SSU1 1-746): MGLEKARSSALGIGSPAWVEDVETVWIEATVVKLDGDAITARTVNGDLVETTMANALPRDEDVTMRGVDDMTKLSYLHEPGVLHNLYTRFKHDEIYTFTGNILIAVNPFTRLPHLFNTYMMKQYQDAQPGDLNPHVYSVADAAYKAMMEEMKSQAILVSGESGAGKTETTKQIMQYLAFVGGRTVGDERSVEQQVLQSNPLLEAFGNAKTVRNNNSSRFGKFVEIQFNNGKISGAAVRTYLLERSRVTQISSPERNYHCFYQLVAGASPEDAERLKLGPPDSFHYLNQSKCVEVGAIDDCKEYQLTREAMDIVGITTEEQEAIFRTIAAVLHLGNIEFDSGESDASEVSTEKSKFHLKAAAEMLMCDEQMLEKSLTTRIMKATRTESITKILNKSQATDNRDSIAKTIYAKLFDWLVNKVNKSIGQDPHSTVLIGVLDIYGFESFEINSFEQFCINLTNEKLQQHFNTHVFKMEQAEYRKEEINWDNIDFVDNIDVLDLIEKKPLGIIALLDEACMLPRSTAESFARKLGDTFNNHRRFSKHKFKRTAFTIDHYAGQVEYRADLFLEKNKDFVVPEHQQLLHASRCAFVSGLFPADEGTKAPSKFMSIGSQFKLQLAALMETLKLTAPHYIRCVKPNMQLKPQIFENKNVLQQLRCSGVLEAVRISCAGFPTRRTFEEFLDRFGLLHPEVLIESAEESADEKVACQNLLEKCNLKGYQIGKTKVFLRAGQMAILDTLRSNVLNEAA
structure (smiles),measurement,value
Nc1ncnc2c1ncn2[C@@H]1O[C@H](COP(=O)(O)OP(=O)(O)OP(=O)(O)O)[C@@H](O)[C@H]1O [ATP],"single-molecule fluorescence tracking, run length and velocity vs [ATP]",velocities are shown (mean ± s.e.m.) as a function of [ATP]
